Reference: patent US8242087B2, “Phosphate modified nucleosides useful as substrates for polymerases and as antiviral agents” (priority 2007, dated 2012)

How the values were obtained:
[1] = target: T1, HIV-1 Reverse Transcriptase (Human immunodeficiency virus type 1 group M subtype B, UniProt P03366); assay: Single incorporation into P1T1 by HIV-1 Reverse Transcriptase (Examples 6, 7, 9); assay type: biochemical
T1 construct: performed with the enzyme HIV-1 RT (Ambion, 10 U/μL stock solution); purchased Ambion
Procedure: HIV-1 Reverse Transcriptase serves, in the HIV-1 viral replication process, as a catalyst and uses deoxynucleotides as substrates. This polymerase is error-prone and thus has a high mutation rate. Here, we evaluated the capacity to incorporate a deoxyadenosine nucleoside into the primer-template complex P1T1 using HIV-1 RT, and some of the above described illustrative compounds of the invention, carrying different leaving groups, as substrates. The initial screening was carried out using a template with an overhang of one thymidine nucleotide followed by three non-pyrimidine bases (Table 1). Incorporation efficiency was analysed by the polyacrylamide gel-based single nucleotide incorporation assay.
End-labeled primer was annealed to its template by combining primer and template in a molar ratio of 1:2 and heating the mixture to 70° C. for 10 minutes followed by slow cooling to room temperature over a period of 1.5 hour. For the incorporation of 1, 2, 3, 4, 5 and 6, a series of 20 μL-batch reactions was performed with the enzyme HIV-1 RT (Ambion, 10 U/μL stock solution, specific activity 8.095 U/mg, concentration 1.2 mg/mL). The final mixture contained 125 nM primer template complex, RT buffer (250 mM Tris.HCl, 250 mM KCl, 50 mM MgCl2, 2.5 mM spermidine, 50 mM dithiothreitol (DTT); pH 8.3), 0.025 U/μL HIV-1 RT, and different concentrations of phosphoramidate or phosphodiester building blocks (1 mM, 500 μM, 200 μM and 100 μM respectively). In the case of the aromatic phosphate-modified nucleosides 23 and 24, the range of concentrations was limited to 1 mM. In the control reaction with the natural nucleotide, a 10 μM dATP concentration was used. The mixture was incubated at 37° C. and 2.5 μL aliquots were quenched after 5, 10, 20, 30, 60 and 120 minutes.

HIV RT = target: T2, HIV RT (Human immunodeficiency virus type 1 group M subtype B, UniProt P03366); assay: Primer extension by HIV RT (P1/T3, P1/T5); assay type: biochemical, HIV-1; conditions: one hour, 500 μM
T2 construct: HIV RT polymerase was purchased from GE Healthcare; purchased GE Healthcare (Amersham Bioscience)
Procedure: (§1) A typical single nucleotide incorporation and primer extension assays using HIV RT polymerase was carried out similar to one described in the literature. HIV RT polymerase was purchased from GE Healthcare and was supplied as either 12 or 30 U/μL stock solution. The final concentration of HIV RT in a reaction mixture was 0.03-0.003 U/μL. A primer/template duplex mixture was prepared by combining appropriate amounts of a 5′-^33P-labeled primer (P1) and a template in 1:2 molar ratio to provide a 4× solution with 0.5 μM primer concentration. The polymerase reactions were carried out in a 5×RT buffer containing 250 mM TRIS.HCL, 250 mM KCl, 50 mM MgCl2, 2.5 mM spermidine, 50 mM DTT, pH 8.3. For the single nucleotide incorporation assay, a P1/T1 primer-template pair was used whereas the primer extension study was performed with P1/T3 and P1/T5 primer-template pairs.
Primer extension study with HIV RT and Therminator DNA polymerase was performed in a fashion similar to the single nucleotide incorporation experiments. Two sets of primer/template complexes were used: P1/T3 and P1/T5.

[2] = target: T3, HIV reverse transcriptase (HIV RT) (Human immunodeficiency virus type 1 group M subtype B, UniProt P03366); assay: Single nucleotide incorporation by HIV RT, gel-based, P1/T1 (Examples 2-3); assay type: biochemical, HIV-1; conditions: same conditions (500 μM, 60 min)
T3 construct: HIV RT polymerase was purchased from GE Healthcare; purchased GE Healthcare (Amersham Bioscience)
Procedure: as §1
Briefly, a mixture containing 5 μL of the 4× primer/DNA duplex solution and 5 μL of 4× polymerase solution was pre-incubated at 37° C. for 2 minutes to ensure formation a DNA polymerase/DNA duplex complex. Simultaneously, 2× solutions of dNTP to provide final concentrations of 100 μM, 200 μM, 500 μM and 1 mM were also pre-incubated at 37° C. for 2 minutes as well. The polymerase reaction in a total volume of 20 μL was initiated by addition of 10 μL of the 2× dNTP solution to the DNA polymerase/DNA duplex mixture. The reactions were run at 37° C. and aliquots (2.5 μL) were removed at specified time points and mixed with 10 μL of a quenching buffer containing 80% formamide, 2 mM EDTA, 1×TBE. Quenched reactions were analyzed by loading 2 μL of a reaction sample onto a 20% denaturing polyacrylamide:gel (19:1 acrylamide:bisacrylamide, 7M urea, 0.4 mm×30 cm×40 cm) made in 1×TBE buffer (90 mM Tris-borate, 2 mM EDTA, pH 8.3). The gel was pre-equilibrated for 2 hours before loading and the reactions were run along with a tracking dye marker containing bromophenol blue (BB) and xylene cyanol (XC) until the BB dye had run ⅔ of the total gel length. For visualization, gels were scanned using a Cyclone Phosphoroimager.

[3] = target: T4, Therminator DNA polymerase (Thermococcus sp., UniProt Q56366, A485L/D141A/E143A); assay: Single nucleotide incorporation by Therminator DNA polymerase; assay type: biochemical, (9° N-7) Thermococcus sp.; conditions: single nucleotide incorporation, P1/T1
T4 construct: purchased Westburg (NEB)
Procedure: In the case of Therminator DNA polymerase, the enzyme was obtained from Westburg (NEB) (2 U/μL) and the reactions were carried out in a 10× Thermopol reaction buffer containing 20 mM TRIS.HCl, 10 mM KCl, 2 mM MgSO4, 0.1% Triton X-100, pH 8.8. The final concentration of the Therminator DNA pol in the reaction mixture was 8.33×10^−4 U/μL. The polymerase reaction involving Therminator DNA polymerase or any other thermostable polymerase (Vent (exo^−), Taq DNA polymerase) was carried out in a similar way as the HIV RT reaction with some modifications. The dNTP solutions and the primer/template/DNA polymerase mixture solutions were topped with mineral oil (30-60 μL) and pre-incubated at 70° C. for 2 minutes. The polymerase reactions were performed at 70° C. as well.

T4 sequence (Q56366 whole entry D141A/E143A/A485L): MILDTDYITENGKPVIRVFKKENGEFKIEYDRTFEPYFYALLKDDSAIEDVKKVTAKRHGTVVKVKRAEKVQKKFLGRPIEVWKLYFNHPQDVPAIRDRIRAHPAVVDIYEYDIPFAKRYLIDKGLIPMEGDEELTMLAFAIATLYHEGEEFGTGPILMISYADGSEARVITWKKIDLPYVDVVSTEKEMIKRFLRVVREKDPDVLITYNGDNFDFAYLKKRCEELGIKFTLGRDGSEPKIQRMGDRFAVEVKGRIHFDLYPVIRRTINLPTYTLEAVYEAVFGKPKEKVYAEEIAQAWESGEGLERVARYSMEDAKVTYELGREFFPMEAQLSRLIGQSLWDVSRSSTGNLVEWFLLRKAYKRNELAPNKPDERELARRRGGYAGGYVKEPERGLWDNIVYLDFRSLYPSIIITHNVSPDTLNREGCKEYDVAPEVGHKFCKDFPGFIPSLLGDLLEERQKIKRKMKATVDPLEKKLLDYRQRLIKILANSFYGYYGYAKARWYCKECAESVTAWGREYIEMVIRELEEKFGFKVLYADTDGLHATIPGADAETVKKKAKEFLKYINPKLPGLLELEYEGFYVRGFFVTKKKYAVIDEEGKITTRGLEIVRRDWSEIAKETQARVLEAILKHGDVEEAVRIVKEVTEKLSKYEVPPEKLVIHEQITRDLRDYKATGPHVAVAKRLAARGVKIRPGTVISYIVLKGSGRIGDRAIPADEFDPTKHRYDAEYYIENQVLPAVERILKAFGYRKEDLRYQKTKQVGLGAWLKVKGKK

Nc1ncnc2c1ncn2[C@H]1C[C@H](O)[C@@H](COP(=O)(O)Nc2cc(C(=O)O)cc(C(=O)O)c2)O1 [Compound 23, 2′-deoxyadenosine-5′(5-aminoisophthalic acid) phosphoramidate]
recognition as substrate ([1]; 1 mM): less well recognized as substrate

Nc1ncnc2c1ncn2[C@H]1C[C@H](O)[C@@H](COP(=O)(O)NCC2CO2)O1 (stereo partly drawn) [Compound 3, 2′-deoxy-adenosine-5′-glycidyl-phosphoramidate]
primer strand extension efficiency (HIV RT): low efficiency
incorporation, fold less efficient than Asp-dAMP [2]: 6.5 fold
incorporation as Therminator DNA polymerase substrate [3]: act effectively as alternative substrates

Nc1ncnc2c1ncn2[C@H]1C[C@H](O)[C@@H](COP(=O)(O)OCC(=O)O)O1 [GA-dAMP, 2′-deoxyadenosine-5′-(glycolic acid) phosphodiester]
n+1 formation ([1]; 500 μM): up to 68%

Nc1ncnc2c1ncn2[C@H]1C[C@H](O)[C@@H](COP(=O)(O)Oc2ccc(C(=O)O)c(C(=O)O)c2)O1 [Compound 24, 2′-deoxyadenosine-5′-(4-hydroxy-phthalic acid) phosphodiester]
conversion to an n+1 strand ([1]; 2 hours, 1 mM concentration): 13%
